# Experimental data published in patent US20200237766A1, “PKM2 ACTIVATORS IN COMBINATION WITH REACTIVE OXYGEN SPECIES FOR TREATMENT OF CANCER” (TOLERO PHARMACEUTICALS, INC., priority 2017, published 2020).
# Where two headings read alike, the source gives them in different places.
# Target: PKM2 (Homo sapiens, UniProt P14618)
# Experiment: PKM2 activation biochemical assay (AC50 / max. response vs fructose 1,6-bisphosphate)
# Conditions: for Max. Resp. (%): % maximum response in a biochemical assay as compared with Fructose 1,6-bisphosphate
# [1] = biochemical assay, read-out: PKM2 AC50
# Chain of PKM2 (P14618 whole entry): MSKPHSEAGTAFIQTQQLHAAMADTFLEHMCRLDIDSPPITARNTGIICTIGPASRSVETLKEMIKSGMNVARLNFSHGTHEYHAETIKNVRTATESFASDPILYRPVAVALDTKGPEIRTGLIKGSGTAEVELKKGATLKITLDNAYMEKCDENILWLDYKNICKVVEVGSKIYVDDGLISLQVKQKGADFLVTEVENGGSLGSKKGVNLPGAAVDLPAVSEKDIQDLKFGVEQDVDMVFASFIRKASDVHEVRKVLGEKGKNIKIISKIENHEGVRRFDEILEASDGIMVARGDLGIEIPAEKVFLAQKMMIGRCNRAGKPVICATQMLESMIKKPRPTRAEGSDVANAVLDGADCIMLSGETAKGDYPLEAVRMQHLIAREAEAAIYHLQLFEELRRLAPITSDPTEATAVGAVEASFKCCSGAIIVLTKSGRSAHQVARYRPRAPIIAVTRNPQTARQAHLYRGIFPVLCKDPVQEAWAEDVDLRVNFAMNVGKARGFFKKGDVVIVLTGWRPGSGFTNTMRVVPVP
Structure (SMILES),Max. Resp. (%),AC50 [1] [nM],AC50 [nM]
CCN(CC)CCN(Cc1ccccc1C(C)C)C(=O)c1cc(C(F)(F)F)n[nH]1 [Compound 184],85%,1950,
CCN(CC)CCCN(Cc1ccccc1Cl)C(=O)c1cc(C(F)(F)F)n[nH]1 [Compound 185],53%,1750,
CN(C)CCCN(Cc1ccccc1Cl)C(=O)c1cc(C(F)(F)F)n[nH]1 [Compound 186],100%,375,
CN(C)CCN(Cc1ccccc1Cl)C(=O)c1cc(C(F)(F)F)n[nH]1 [Compound 187],100%,295,
CC1CC(C)CN(CCN(Cc2ccccc2Cl)C(=O)c2cc(C(F)(F)F)n[nH]2)C1 (stereo not shown) [Compound 188],60%,46,
O=C(c1cc(C(F)(F)F)n[nH]1)N(CCN1CCCCCC1)Cc1ccccc1Cl [Compound 189],100%,24,
CC1CCN(CCN(Cc2ccccc2Cl)C(=O)c2cc(C(F)(F)F)n[nH]2)CC1 [Compound 190],100%,42,
CC1CCCN(CCN(Cc2ccccc2Cl)C(=O)c2cc(C(F)(F)F)n[nH]2)C1 (stereo not shown) [Compound 191],100%,29,
CC1CCCCN1CCN(Cc1ccccc1Cl)C(=O)c1cc(C(F)(F)F)n[nH]1 (stereo not shown) [Compound 192],100%,104,
CCN(CC)CCN(Cc1ccccc1Cl)C(=O)c1[nH]nc(Cl)c1F [Compound 193],58%,14000,
O=C(c1cc(C(F)(F)F)n[nH]1)N(CCN1CCCCCC1)Cc1ccc(O)cc1Cl [Compound 194],100%,43,
O=C(c1cc(C(F)(F)F)n[nH]1)N(CCN1CCCCCC1)Cc1ccc(O)cc1F [Compound 195],100%,,95
Nc1ccc(Cl)c(CN(CCN2CCCCCC2)C(=O)c2cc(C(F)(F)F)n[nH]2)c1 [Compound 196],100%,99,
O=C(c1cc(C(F)(F)F)n[nH]1)N(CCN1CCCCCC1)Cc1ccccc1F [Compound 197],100%,63,
O=C(c1cc(C(F)(F)F)n[nH]1)N(CCN1CCCCCC1)Cc1c(F)cccc1F [Compound 198],100%,130,
CCC1CCN(CCN(Cc2ccccc2Cl)C(=O)c2cc(C(F)(F)F)n[nH]2)CC1 [Compound 199],100/100%,100,
CC1CCCN(CCN(Cc2cc(N)ccc2Cl)C(=O)c2cc(C(F)(F)F)n[nH]2)C1 (stereo not shown) [Compound 200],100%,130,
CC1CCCN(CCN(Cc2ccccc2F)C(=O)c2cc(C(F)(F)F)n[nH]2)C1 (stereo not shown) [Compound 201],100%,215,
CC1CCCCN1CCN(Cc1cc(N)ccc1Cl)C(=O)c1cc(C(F)(F)F)n[nH]1 (stereo not shown) [Compound 202],100%,395,
CC1CCCCN1CCN(Cc1ccccc1F)C(=O)c1cc(C(F)(F)F)n[nH]1 (stereo not shown) [Compound 203],100%,550,
CCN(CCN(Cc1ccccc1Cl)C(=O)c1cc(C(F)(F)F)n[nH]1)C(C)C [Compound 204],53%,880,
O=C(c1cc(C(F)(F)F)n[nH]1)N(CCN1CCC(F)(F)CC1)Cc1ccccc1Cl [Compound 205],100%,2050,

Structure (SMILES),Max. Resp. (%),AC50 [1] [nM],AC50 [nM]
O=C(c1cc(C(F)(F)F)n[nH]1)N(CCN1CCCC1)Cc1cccc2[nH]cc(F)c12 [Compound 206],100%,136,
Nc1ccc(CN(CCN2CCCCCC2)C(=O)c2cc(C(F)(F)F)n[nH]2)c(Cl)c1 [Compound 207],75%,170,
O=C(c1cc(C(F)(F)F)n[nH]1)N(CCN1CCCCCC1)Cc1cccc2nc[nH]c12 [Compound 208],100%,125,
CCCN(CC)CCN(Cc1ccccc1Cl)C(=O)c1cc(C(F)(F)F)n[nH]1 [Compound 209],100%,52,
O=C(c1cc(C(F)(F)F)n[nH]1)N(CCN1CCCCCC1)Cc1cccc([N+](=O)[O-])c1Cl [Compound 210],100%,,133
O=C(c1cc(C(F)(F)F)n[nH]1)N(CCN1CCCCCC1)Cc1c(Cl)cccc1[N+](=O)[O-] [Compound 211],100%,123,
CC1CCCC(C)N1CCN(Cc1ccccc1Cl)C(=O)c1cc(C(F)(F)F)n[nH]1 (stereo not shown) [Compound 212],53%,5810,
Nc1cccc(CN(CCN2CCCCCC2)C(=O)c2cc(C(F)(F)F)n[nH]2)c1Cl [Compound 213],100%,,60
Nc1ccc(F)c(CN(CCN2CCCCCC2)C(=O)c2cc(C(F)(F)F)n[nH]2)c1 [Compound 214],100%,153,
COc1ccc(N)cc1CN(CCN1CCCCCC1)C(=O)c1cc(C(F)(F)F)n[nH]1 [Compound 215],100%,1190,
Nc1cccc(CN(CCN2CCCCCC2)C(=O)c2cc(C(F)(F)F)n[nH]2)c1F [Compound 216],100%,117,
COc1c(N)cccc1CN(CCN1CCCCCC1)C(=O)c1cc(C(F)(F)F)n[nH]1 [Compound 217],100%,230,
Nc1cccc(Cl)c1CN(CCN1CCCCCC1)C(=O)c1cc(C(F)(F)F)n[nH]1 [Compound 218],100%,41,
O=C(c1cc(C(F)(F)F)n[nH]1)N(CCN1CCC(O)CC1)Cc1ccccc1Cl [Compound 219],100%,1300,
O=C(c1cc(C(F)(F)F)n[nH]1)N(CCN1CCCC(O)C1)Cc1ccccc1Cl (stereo not shown) [Compound 220],100%,465,
CC(CN(Cc1c(N)cccc1Cl)C(=O)c1cc(C(F)(F)F)n[nH]1)N1CCCC1 (stereo not shown) [Compound 221],60%,223,
Nc1cccc(Cl)c1CN(CCN1CCCC1)C(=O)c1cc(C(F)(F)F)n[nH]1 [Compound 222],100%,,56
CCCN(CC)CCN(Cc1c(N)cccc1Cl)C(=O)c1cc(C(F)(F)F)n[nH]1 [Compound 223],100%,,32
Nc1cccc(Cl)c1CN(CCN1CCS(=O)(=O)CC1)C(=O)c1cc(C(F)(F)F)n[nH]1 [Compound 224],100%,410,
Nc1cccc(Cl)c1CN(CCN1CCCC(O)C1)C(=O)c1cc(C(F)(F)F)n[nH]1 (stereo not shown) [Compound 225],100%,102,
NC1CC(N(Cc2ccccc2Cl)C(=O)c2cc(C(F)(F)F)n[nH]2)C1 (stereo not shown) [Compound 226],80%,12000,
O=C(c1cc(C(F)(F)F)n[nH]1)N(Cc1ccccc1Cl)CC1CCN1 (stereo not shown) [Compound 227],100%,215,

Structure (SMILES),Max. Resp. (%),AC50 [1] [nM],AC50 [nM]
CS(=O)(=O)N1CCCC(CCN(Cc2ccccc2Cl)C(=O)c2cc(C(F)(F)F)n[nH]2)C1 (stereo not shown) [Compound 228],100%,2000,
O=C(c1cc(C(F)(F)F)n[nH]1)N(CCc1ccc(O)cc1)Cc1ccccc1Cl [Compound 230],100%,12000,
O=C(c1cc(C(F)(F)F)n[nH]1)N(Cc1ccccc1Cl)CC1CCCN1 (stereo not shown) [Compound 232],85%,320,
Nc1cccc(Cl)c1CN(CC1CCN1)C(=O)c1cc(C(F)(F)F)n[nH]1 (stereo not shown) [Compound 233],75%,930,
Nc1cccc(Cl)c1CN(CCN1CCC(O)C1)C(=O)c1cc(C(F)(F)F)n[nH]1 (stereo not shown) [Compound 234],100%,111,
COC1CCN(CCN(Cc2c(N)cccc2Cl)C(=O)c2cc(C(F)(F)F)n[nH]2)C1 (stereo not shown) [Compound 235],100%,133,
Nc1cccc(Cl)c1CN(CCN1CCCC(F)C1)C(=O)c1cc(C(F)(F)F)n[nH]1 (stereo not shown) [Compound 236],73%,160,
COC1CCCN(CCN(Cc2c(N)cccc2Cl)C(=O)c2cc(C(F)(F)F)n[nH]2)C1 (stereo not shown) [Compound 237],100%,183,
Nc1cccc(Cl)c1CN(CCN1CCC(F)CC1)C(=O)c1cc(C(F)(F)F)n[nH]1 [Compound 238],100%,116,
Nc1cccc(Cl)c1CN(CCN1CCCOCC1)C(=O)c1cc(C(F)(F)F)n[nH]1 [Compound 239],100%,,115
CCCN(CC)CCN(Cc1c(N)cccc1F)C(=O)c1cc(C(F)(F)F)n[nH]1 [Compound 240],100%,68,
Nc1cccc(Cl)c1CN(CCN1CC[C@H](F)C1)C(=O)c1cc(C(F)(F)F)n[nH]1 [Compound 241],100%,,125
Nc1cccc(Cl)c1CN(CCN1CC[C@@H](F)C1)C(=O)c1cc(C(F)(F)F)n[nH]1 [Compound 242],100%,,465
Nc1cccc(Cl)c1CN(CCN1CCCC(F)CC1)C(=O)c1cc(C(F)(F)F)n[nH]1 (stereo not shown) [Compound 243],100%,106,
O=C(c1cc(C(F)(F)F)n[nH]1)N(Cc1ccc(O)cc1F)CC1CCC1 [Compound 244],107%,62,
O=C(c1cc(Br)n[nH]1)N(Cc1ccc(O)cc1F)CC1CCC1 [Compound 245],100%,35,
O=C(c1cc(C2CC2)n[nH]1)N(Cc1ccc(O)cc1F)CC1CCC1 [Compound 246],85%,,
O=C(CCSC(=S)NCc1cccnc1)c1ccccc1 [PMA8],24%,7640,
O=C(CCSC(=S)NCc1cccnc1)c1ccc(Cl)cc1 [PMA9],,> 20000,
O=C(CCSC(=S)NCc1cccnc1)c1ccc(F)cc1 [PMA10],48%,9830,
O=C(CCSC(=S)NCc1cccnc1)c1ccc(O)cc1 [PMA11],76%,6230,
N#Cc1ccc(C(=O)CCSC(=S)NCc2cccnc2)cc1 [PMA12],61%,4390,
